# Experimental data published in patent US20240209028A1, “CNP COMPOUNDS” (priority 2022, published 2024).
# Like-named read-outs stand apart in the source and are kept apart here. Starred links: 1 amine or outer side, 2 acyl side, 3 side chain; linkers in the order of their positions; H or OH if unused. Positions of bridges follow the written chain, without caps; N, C: chain ends. Residues, ends and D or L forms follow the SMILES beside them. *: point of attachment. C18 diacid = O=C(O)CCCCCCCCCCCCCCCCC(=O)*; γGlu = O=C(O)[C@H](CCC(=O)[*:2])N[*:1]; AEEA = NCCOCCOCC(=O)O
# Key:
# [1] = Thioflavin T (ThT) assay: lagtime and peptide recovery; assay type: physicochemical; settings: assay terminated after 45 hours; for LagTime (h) at pH 6.5: ThT assay, pH 6.5, 37° C.
# How it was run: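 ThT (final about 1 μM) was added to peptide supernatants at pH 4.0 and 6.5 and incubated at 37 °C with orbital shaking for 45 h. Fluorescence (ex 444/em 485 nm) was read every 20 min, and lag-time was taken as the time to onset of signal rise. Recovery is the RP-UPLC (215 nm) total peak area after vs. before incubation.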
# [2] = PK of CNP compounds after i.v. and s.c. administration to rats; settings: male, Sprague Dawley, in vivo, rat; for clearance: read-out: Cl (L/hr/kg), i.v. administration (converted); for bioavailability: s.c. bioavailability, read-out: F (%), s.c. administration
# How it was run: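 Plasma exposure was quantified by protein precipitation and turboflow LC-MS/MS in SRM mode. Rats received either 100 nmol/kg intravenously or 300 nmol/kg subcutaneously, with sublingual blood taken at baseline and at points up to 72 h. Per-animal NCA gave clearance as Dose/AUCinf, and results are averaged over 4-6 animals.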
# [3] = iv, i.v., about 100 nmol/kg, read-out: T½ (hr), i.v. administration (converted)
# [4] = sc, s.c., about 300 nmol/kg, read-out: T½ (hr), s.c. administration (converted)
SMILES,LagTime (h) at pH 6.5 [1],"clearance ([2]; iv, i.v., about 100 nmol/kg)","half-life [2, 3]","bioavailability ([2]; sc, about 300 nmol/kg)","half-life [2, 4]","LagTime (h) at pH 4.0 ([1]; ThT, 37° C., shaking)"
CC[C@H](C)[C@@H]1NC(=O)[C@H](CCCNC(=N)N)NC(=O)[C@H](CC(=O)O)NC(=O)[C@H](CC(C)C)NC(=O)[C@@H]2CCCN2C(=O)[C@H](CC(C)C)NC(=O)CNC(=O)[C@H](Cc2ccccc2)NC(=O)[C@@H](NC(=O)CNC(=O)[C@H](CCC(N)=O)NC(=O)[C@H](CO)NC(=O)[C@H](CC(C)C)NC(=O)CNC(=O)[C@H](CCCCN)NC(=O)[C@H](CCCCN)NC(=O)[C@H](CCC(N)=O)NC(=O)[C@H](C)NC(=O)CNC(=O)[C@H](CCCCN)NC(=O)[C@H](Cc2ccc(O)cc2)NC(=O)[C@H](CCCCN)NC(=O)[C@H](CCCNC(=N)N)NC(=O)[C@H](C)NC(=O)COCCOCCNC(=O)COCCOCCNC(=O)COCCOCCNC(=O)COCCOCCNC(=O)CC[C@H](NC(=O)CC[C@H](NC(=O)CC[C@H](NC(=O)CC[C@H](NC(=O)CC[C@H](NC(=O)CCCCCCCCCCCCCCCCC(=O)O)C(=O)O)C(=O)O)C(=O)O)C(=O)O)C(=O)O)CSSC[C@@H](C(=O)O)NC(=O)CNC(=O)[C@H](CC(C)C)NC(=O)CNC(=O)[C@H](CO)NC(=O)[C@H](CC(C)C)NC(=O)[C@H](CO)NC(=O)CNC1=O [compound 9407] ({C18 diacid-γGlu-γGlu-γGlu-γGlu-γGlu-AEEA-AEEA-AEEA-AEEA}-ARKYKGAQKKGLSQGCFGLPLDRIGSLSGLGC-OH; disulfide 16-32),45 h,0.00515 L/h/kg,15.2 h,37.2%,14.9 h,
CC[C@H](C)[C@@H]1NC(=O)[C@H](CCCNC(=N)N)NC(=O)[C@H](CC(=O)O)NC(=O)[C@H](CC(C)C)NC(=O)[C@@H]2CCCN2C(=O)[C@H](CC(C)C)NC(=O)CNC(=O)[C@H](Cc2ccccc2)NC(=O)[C@@H](NC(=O)CNC(=O)[C@H](CCC(N)=O)NC(=O)[C@H](CO)NC(=O)CNC(=O)CNC(=O)[C@H](CCCCN)NC(=O)[C@H](CCCCN)NC(=O)[C@H](CCC(N)=O)NC(=O)[C@H](C)NC(=O)CNC(=O)[C@H](CCCCN)NC(=O)[C@H](Cc2ccc(O)cc2)NC(=O)COCCOCCNC(=O)COCCOCCNC(=O)COCCOCCNC(=O)COCCOCCNC(=O)CC[C@H](NC(=O)CC[C@H](NC(=O)CCCCCCCCCCCCCCCCC(=O)O)C(=O)O)C(=O)O)CSSC[C@@H](C(=O)O)NC(=O)CNC(=O)[C@H](CC(C)C)NC(=O)CNC(=O)[C@H](CO)NC(=O)[C@H](CC(C)C)NC(=O)[C@H](CO)NC(=O)CNC1=O [compound 9435] ({C18 diacid-γGlu-γGlu-AEEA-AEEA-AEEA-AEEA}-YKGAQKKGGSQGCFGLPLDRIGSLSGLGC-OH; disulfide 13-29; C-terminus assumed),45 h,0.00458 L/h/kg,10.4 h,,,45 h
CC[C@H](C)[C@@H]1NC(=O)[C@H](CCCNC(=N)N)NC(=O)[C@H](CC(=O)O)NC(=O)[C@H](CC(C)C)NC(=O)[C@@H]2CCCN2C(=O)[C@H](CC(C)C)NC(=O)CNC(=O)[C@H](Cc2ccccc2)NC(=O)[C@@H](NC(=O)CNC(=O)[C@H](CO)NC(=O)[C@H](CO)NC(=O)[C@H](CC(C)C)NC(=O)CNC(=O)[C@H](CCCCN)NC(=O)[C@H](CCCCN)NC(=O)[C@H](CCC(N)=O)NC(=O)[C@H](C)NC(=O)CNC(=O)[C@H](CCCCN)NC(=O)[C@H](Cc2ccc(O)cc2)NC(=O)[C@H](CCCCN)NC(=O)[C@H](CCCNC(=N)N)NC(=O)[C@H](C)NC(=O)[C@H](CCC(N)=O)NC(=O)[C@@H]2CCCN2C(=O)[C@H](Cc2c[nH]cn2)NC(=O)[C@H](CCC(=O)O)NC(=O)[C@H](CCC(N)=O)NC(=O)CC[C@H](NC(=O)CC[C@H](NC(=O)CC[C@H](NC(=O)CC[C@H](NC(=O)CC[C@H](NC(=O)CCCCCCCCCCCCCCCCC(=O)O)C(=O)O)C(=O)O)C(=O)O)C(=O)O)C(=O)O)CSSC[C@@H](C(=O)O)NC(=O)CNC(=O)[C@H](CC(C)C)NC(=O)CNC(=O)[C@H](CO)NC(=O)[C@H](CC(C)C)NC(=O)[C@H](CO)NC(=O)CNC1=O [compound 9482] ({C18 diacid-γGlu-γGlu-γGlu-γGlu-γGlu}-QEHPQARKYKGAQKKGLSSGCFGLPLDRIGSLSGLGC-OH; disulfide 21-37),45 h,0.00549 L/h/kg,14.5 h,71.5%,18.6 h,
